Assay results taken from patent US12540131B2 (Merck Sharp & Dohme LLC, priority 2019, dated 2026).

Target: GST tagged truncated human mutant G2019S LRRK2 (Homo sapiens (Human), UniProt Q5S007, G2019S)
Test: LRRK2 Km ATP LanthaScreen Assay
Format: biochemical
Details: G2019S LRRK2, 134 μM ATP (Km ATP), mean values
Summary of the method: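 Enzyme (GST-tagged, truncated) was preincubated with compound for 15 min at RT in 50 mM Tris pH 8.5, 10 mM MgCl2, 0.01% Brij-35, 1 mM EGTA, 2 mM DTT and 0.05 mM orthovanadate. Fluorescein-LRRKtide and 134 μM ATP (Km) were then added for 90 min. EDTA and Tb-anti-pERM antibody stopped the reaction; the TR-FRET 520/495 ratio gave 4-parameter IC50s, reported as mean pIC50.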

GST tagged truncated human mutant G2019S LRRK2, sequence (Q5S007 970-2527 G2019S): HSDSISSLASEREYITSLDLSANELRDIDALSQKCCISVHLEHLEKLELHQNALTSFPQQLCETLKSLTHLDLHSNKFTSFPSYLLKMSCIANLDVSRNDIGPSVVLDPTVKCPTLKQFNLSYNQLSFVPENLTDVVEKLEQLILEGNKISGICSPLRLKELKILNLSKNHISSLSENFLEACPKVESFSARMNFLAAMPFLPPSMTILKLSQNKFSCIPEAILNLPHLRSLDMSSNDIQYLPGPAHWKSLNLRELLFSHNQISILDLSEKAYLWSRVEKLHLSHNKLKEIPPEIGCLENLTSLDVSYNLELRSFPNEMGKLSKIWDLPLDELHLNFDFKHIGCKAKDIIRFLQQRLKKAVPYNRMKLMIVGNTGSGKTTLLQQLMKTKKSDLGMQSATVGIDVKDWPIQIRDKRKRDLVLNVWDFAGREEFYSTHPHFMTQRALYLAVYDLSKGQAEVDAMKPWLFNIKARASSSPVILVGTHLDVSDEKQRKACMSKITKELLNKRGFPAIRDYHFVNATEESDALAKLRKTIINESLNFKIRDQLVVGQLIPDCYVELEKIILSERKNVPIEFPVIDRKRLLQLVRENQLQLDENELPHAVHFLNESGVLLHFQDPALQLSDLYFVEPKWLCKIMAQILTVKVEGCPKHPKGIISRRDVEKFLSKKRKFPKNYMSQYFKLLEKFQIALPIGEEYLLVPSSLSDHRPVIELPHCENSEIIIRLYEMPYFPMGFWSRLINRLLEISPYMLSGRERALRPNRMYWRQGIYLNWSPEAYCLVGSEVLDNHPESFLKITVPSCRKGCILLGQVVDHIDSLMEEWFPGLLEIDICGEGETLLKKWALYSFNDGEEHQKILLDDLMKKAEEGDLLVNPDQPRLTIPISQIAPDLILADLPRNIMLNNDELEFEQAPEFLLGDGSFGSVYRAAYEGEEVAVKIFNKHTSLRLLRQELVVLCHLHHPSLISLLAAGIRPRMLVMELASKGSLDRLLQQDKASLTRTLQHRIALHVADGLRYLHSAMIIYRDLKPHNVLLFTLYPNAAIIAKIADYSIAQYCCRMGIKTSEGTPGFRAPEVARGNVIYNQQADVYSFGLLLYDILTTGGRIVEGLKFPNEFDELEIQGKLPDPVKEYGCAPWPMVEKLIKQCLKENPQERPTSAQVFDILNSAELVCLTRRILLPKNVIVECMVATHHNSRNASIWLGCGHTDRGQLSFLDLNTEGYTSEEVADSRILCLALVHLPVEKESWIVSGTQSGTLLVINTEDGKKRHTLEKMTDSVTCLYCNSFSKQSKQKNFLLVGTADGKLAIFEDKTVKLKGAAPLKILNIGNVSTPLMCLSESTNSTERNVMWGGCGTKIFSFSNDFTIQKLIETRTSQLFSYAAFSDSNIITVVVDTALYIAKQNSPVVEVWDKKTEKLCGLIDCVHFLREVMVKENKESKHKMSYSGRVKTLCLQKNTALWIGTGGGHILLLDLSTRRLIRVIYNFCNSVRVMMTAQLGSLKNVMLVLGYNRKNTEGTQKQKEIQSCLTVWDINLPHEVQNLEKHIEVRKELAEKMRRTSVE

Structure (SMILES) | LRRK2 pIC50 | IC50 (read-out: LRRK2 pIC50 (converted)) [pM]
Cc1c(Nc2ncc3cc(Cl)c(C4CCN(C[C@@H](O)c5ccccc5)CC4)cc3n2)cnn1C1CC1 [Ex-4.193, (1S)-2-(4-{6-chloro-2-[(1-cyclopropyl-5-methyl-1H-pyrazol-4-yl)amino]quinazolin-7-yl}piperidin-1-yl)-1-phenylethan-1-ol] | 9.04 | –
Cc1c(Nc2ncc3cc(Cl)c(C4CCN(C[C@H](O)c5cccc(Cl)c5)CC4)cc3n2)cnn1C1CC1 [Ex-4.194, (1R)-2-(4-{6-chloro-2-[(1-cyclopropyl-5-methyl-1H-pyrazol-4-yl)amino]quinazolin-7-yl}piperidin-1-yl)-1-(3-chlorophenyl)ethan-1-ol] | 8.28 | –
Cc1c(Nc2ncc3cc(Cl)c(C4CCN(C[C@H](O)c5cccc(F)c5)CC4)cc3n2)cnn1C1CC1 [Ex-4.195, (1R)-2-(4-{6-chloro-2-[(1-cyclopropyl-5-methyl-1H-pyrazol-4-yl)amino]quinazolin-7-yl}piperidin-1-yl)-1-(3-fluorophenyl)ethan-1-ol] | 8.24 | –
Cc1c(Nc2ncc3cc(Cl)c(C4CCN(C[C@@H](O)c5cccc(F)c5)CC4)cc3n2)cnn1C1CC1 [Ex-4.196, (1S)-2-(4-{6-chloro-2-[(1-cyclopropyl-5-methyl-1H-pyrazol-4-yl)amino]quinazolin-7-yl}piperidin-1-yl)-1-(3-fluorophenyl)ethan-1-ol] | 8.87 | –
Cc1c(Nc2ncc3cc(Cl)c(C4CCN(C[C@@H](O)c5cc(F)cc(F)c5)CC4)cc3n2)cnn1C1CC1 [Ex-4.197, (1S)-2-(4-{6-chloro-2-[(1-cyclopropyl-5-methyl-1H-pyrazol-4-yl)amino]quinazolin-7-yl}piperidin-1-yl)-1-(3,5-difluorophenyl)ethan-1-ol] | 8.76 | –
Cc1c(Nc2ncc3cc(Cl)c(C4CCN(C[C@H](O)c5cc(F)cc(F)c5)CC4)cc3n2)cnn1C1CC1 [Ex-4.198, (1R)-2-(4-{6-chloro-2-[(1-cyclopropyl-5-methyl-1H-pyrazol-4-yl)amino]quinazolin-7-yl}piperidin-1-yl)-1-(3,5-difluorophenyl)ethan-1-ol] | 7.88 | –
Cc1c(Nc2ncc3cc(Cl)c(C4CCN(C[C@H](O)c5ccc(F)c(F)c5)CC4)cc3n2)cnn1C1CC1 [Ex-4.199, (1R)-2-(4-{6-chloro-2-[(1-cyclopropyl-5-methyl-1H-pyrazol-4-yl)amino]quinazolin-7-yl}piperidin-1-yl)-1-(3,4-difluorophenyl)ethan-1-ol] | 7.96 | –
Cc1c(Nc2ncc3cc(Cl)c(C4CCN(C[C@@H](O)c5ccc(F)c(F)c5)CC4)cc3n2)cnn1C1CC1 [Ex-4.200, (1S)-2-(4-{6-chloro-2-[(1-cyclopropyl-5-methyl-1H-pyrazol-4-yl)amino]quinazolin-7-yl}piperidin-1-yl)-1-(3,4-difluorophenyl)ethan-1-ol] | 8.76 | –
Cc1c(Nc2ncc3cc(Cl)c(C4CCN(C[C@H](O)c5ccc(F)cc5F)CC4)cc3n2)cnn1C1CC1 [Ex-4.201, (1R)-2-(4-{6-chloro-2-[(1-cyclopropyl-5-methyl-1H-pyrazol-4-yl)amino]quinazolin-7-yl}piperidin-1-yl)-1-(2,4-difluorophenyl)ethan-1-ol] | 8.19 | –
Cc1c(Nc2ncc3cc(Cl)c(C4CCN(C[C@@H](O)c5ccccc5F)CC4)cc3n2)cnn1C1CC1 [Ex-4.202, (1S)-2-(4-{6-chloro-2-[(1-cyclopropyl-5-methyl-1H-pyrazol-4-yl)amino]quinazolin-7-yl}piperidin-1-yl)-1-(2-fluorophenyl)ethan-1-ol] | 8.47 | –
Cc1c(Nc2ncc3cc(Cl)c(C4CCN(C[C@H](O)c5ccccc5F)CC4)cc3n2)cnn1C1CC1 [Ex-4.203, (1R)-2-(4-{6-chloro-2-[(1-cyclopropyl-5-methyl-1H-pyrazol-4-yl)amino]quinazolin-7-yl}piperidin-1-yl)-1-(2-fluorophenyl)ethan-1-ol] | 8.03 | –
Cc1c(Nc2ncc3cc(Cl)c(C4CCN(C[C@H](O)c5cc(F)ccc5F)CC4)cc3n2)cnn1C1CC1 [Ex-4.204, (1R)-2-(4-{6-chloro-2-[(1-cyclopropyl-5-methyl-1H-pyrazol-4-yl)amino]quinazolin-7-yl}piperidin-1-yl)-1-(2,5-difluorophenyl)ethan-1-ol] | 7.67 | –
Cc1c(Nc2ncc3cc(Cl)c(C4CCN(C[C@@H](O)c5cc(F)ccc5F)CC4)cc3n2)cnn1C1CC1 [Ex-4.205, (1S)-2-(4-{6-chloro-2-[(1-cyclopropyl-5-methyl-1H-pyrazol-4-yl)amino]quinazolin-7-yl}piperidin-1-yl)-1-(2,5-difluorophenyl)ethan-1-ol] | 8.40 | –
Cc1c(Nc2ncc3cc(Cl)c(C4CCN(C[C@H](O)c5cccc(F)c5F)CC4)cc3n2)cnn1C1CC1 [Ex-4.206, (1R)-2-(4-{6-chloro-2-[(1-cyclopropyl-5-methyl-1H-pyrazol-4-yl)amino]quinazolin-7-yl}piperidin-1-yl)-1-(2,3-difluorophenyl)ethan-1-ol] | 7.90 | –
Cc1c(Nc2ncc3cc(Cl)c(C4CCN(C[C@@H](O)c5cccc(F)c5F)CC4)cc3n2)cnn1C1CC1 [Ex-4.207, (1S)-2-(4-{6-chloro-2-[(1-cyclopropyl-5-methyl-1H-pyrazol-4-yl)amino]quinazolin-7-yl}piperidin-1-yl)-1-(2,3-difluorophenyl)ethan-1-ol] | 8.31 | –
Cc1c(Nc2ncc3cc(Cl)c(C4CCN(C[C@H](O)c5c(F)cccc5F)CC4)cc3n2)cnn1C1CC1 [Ex-4.208, (1R)-2-(4-{6-chloro-2-[(1-cyclopropyl-5-methyl-1H-pyrazol-4-yl)amino]quinazolin-7-yl}piperidin-1-yl)-1-(2,6-difluorophenyl)ethan-1-ol] | 7.96 | –
Cc1c(Nc2ncc3cc(Cl)c(C4CCN(C[C@@H](O)c5c(F)cccc5F)CC4)cc3n2)cnn1C1CC1 [Ex-4.209, (1S)-2-(4-{6-chloro-2-[(1-cyclopropyl-5-methyl-1H-pyrazol-4-yl)amino]quinazolin-7-yl}piperidin-1-yl)-1-(2,6-difluorophenyl)ethan-1-ol] | 8.16 | –
Cc1c(Nc2ncc3cc(Cl)c(C4CCN(CC5(O)CCOCC5)CC4)cc3n2)cnn1C1CC1 [Ex-4.210, 4-[(4-{6-chloro-2-[(1-cyclopropyl-5-methyl-1H-pyrazol-4-yl)amino]quinazolin-7-yl}piperidin-1-yl)methyl]oxan-4-ol] | 8.55 | –
COC[C@H](O)CN1CCC(c2cc3nc(Nc4cnn(C5CC5)c4C)ncc3cc2Cl)CC1 [Ex-4.211, (2R)-1-(4-{6-chloro-2-[(1-cyclopropyl-5-methyl-1H-pyrazol-4-yl)amino]quinazolin-7-yl}piperidin-1-yl)-3-methoxypropan-2-ol] | 9.15 | –
COC[C@@H](O)CN1CCC(c2cc3nc(Nc4cnn(C5CC5)c4C)ncc3cc2Cl)CC1 [Ex-4.212, (2S)-1-(4-{6-chloro-2-[(1-cyclopropyl-5-methyl-1H-pyrazol-4-yl)amino]quinazolin-7-yl}piperidin-1-yl)-3-methoxypropan-2-ol] | 8.75 | –
Cc1c(Nc2ncc3cc(Cl)c(C4CCN(C[C@H](O)c5ccc(F)cc5)CC4)cc3n2)cnn1C1CC1 [Ex-4.213, (1R)-2-(4-{6-chloro-2-[(1-cyclopropyl-5-methyl-1H-pyrazol-4-yl)amino]quinazolin-7-yl}piperidin-1-yl)-1-(4-fluorophenyl)ethan-1-ol] | 8.50 | –
Cc1c(Nc2ncc3cc(Cl)c(C4CCN(C[C@@H](O)c5ccc(F)cc5)CC4)cc3n2)cnn1C1CC1 [Ex-4.214, (1S)-2-(4-{6-chloro-2-[(1-cyclopropyl-5-methyl-1H-pyrazol-4-yl)amino]quinazolin-7-yl}piperidin-1-yl)-1-(4-fluorophenyl)ethan-1-ol] | 8.62 | –
Cc1c(Nc2ncc3cc(Cl)c(C4CCN(CC5(O)CCC5)CC4)cc3n2)cnn1C1CC1 [Ex-4.215, 1-[(4-{6-chloro-2-[(1-cyclopropyl-5-methyl-1H-pyrazol-4-yl)amino]quinazolin-7-yl}piperidin-1-yl)methyl]cyclobutan-1-ol] | 8.57 | –
Cc1c(Nc2ncc3cc(Cl)c(C4CCN(C[C@H](O)CN5CCCC5=O)CC4)cc3n2)cnn1C1CC1 [Ex-4.216, 1-[(2S)-3-(4-{6-chloro-2-[(1-cyclopropyl-5-methyl-1H-pyrazol-4-yl)amino]quinazolin-7-yl}piperidin-1-yl)-2-hydroxypropyl]pyrrolidin-2-one] | 9.05 | –
Cc1c(Nc2ncc3cc(Cl)c(C4CCN(CC(C)(C)O)CC4)cc3n2)cnn1C1CC1 [Ex-4.217, 1-(4-{6-chloro-2-[(1-cyclopropyl-5-methyl-1H-pyrazol-4-yl)amino]quinazolin-7-yl}piperidin-1-yl)-2-methylpropan-2-ol] | 8.57 | –
Cc1c(Nc2ncc3cc(Cl)c(C4CCN(C[C@]5(O)C[C@H](C#N)C5)CC4)cc3n2)cnn1C1CC1 [Ex-4.229, trans-3-[(4-{6-chloro-2-[(1-cyclopropyl-5-methyl-1H-pyrazol-4-yl)amino]quinazolin-7-yl}piperidin-1-yl)methyl]-3-hydroxycyclobutane-1-carbonitrile] | 8.95 | –
Cc1cc2cnc(Nc3cnn(C4(C)CC4)c3C)nc2cc1C1CCN(CCC#N)CC1 [Ex-5.1, 3-(4-(6-methyl-2-((5-methyl-1-(1-methylcyclopropyl)-1H-pyrazol4-yl)amino)quinazolin-7-yl)piperidin-1-yl)propanenitrile] | – | < 631
Cc1cc2cnc(Nc3cnn(C4(C)CC4)c3Cl)nc2cc1C1CCN(CCC#N)CC1 [Ex-5.2, 3-(4-(2-((5-chloro-1-(1-methylcyclopropyl)-1H-pyrazol-4-yl)amino)-6-methylquinazolin-7-yl)piperidin-1-yl)propanenitrile] | >9.20 | –
